{"source": "paper PMC10847579", "about": "“Recording ten-fold larger IKr conductances with automated patch clamping using equimolar Cs^+ solutions” (Frontiers in Physiology, 2024)", "key": {"hERG channel [1]": {"biological_target": "T1, hERG channel (Homo sapiens, UniProt Q12809)", "T1 construct": "host or cells: CHO cre/lox hERG", "T1 sequence (Q12809 whole entry)": "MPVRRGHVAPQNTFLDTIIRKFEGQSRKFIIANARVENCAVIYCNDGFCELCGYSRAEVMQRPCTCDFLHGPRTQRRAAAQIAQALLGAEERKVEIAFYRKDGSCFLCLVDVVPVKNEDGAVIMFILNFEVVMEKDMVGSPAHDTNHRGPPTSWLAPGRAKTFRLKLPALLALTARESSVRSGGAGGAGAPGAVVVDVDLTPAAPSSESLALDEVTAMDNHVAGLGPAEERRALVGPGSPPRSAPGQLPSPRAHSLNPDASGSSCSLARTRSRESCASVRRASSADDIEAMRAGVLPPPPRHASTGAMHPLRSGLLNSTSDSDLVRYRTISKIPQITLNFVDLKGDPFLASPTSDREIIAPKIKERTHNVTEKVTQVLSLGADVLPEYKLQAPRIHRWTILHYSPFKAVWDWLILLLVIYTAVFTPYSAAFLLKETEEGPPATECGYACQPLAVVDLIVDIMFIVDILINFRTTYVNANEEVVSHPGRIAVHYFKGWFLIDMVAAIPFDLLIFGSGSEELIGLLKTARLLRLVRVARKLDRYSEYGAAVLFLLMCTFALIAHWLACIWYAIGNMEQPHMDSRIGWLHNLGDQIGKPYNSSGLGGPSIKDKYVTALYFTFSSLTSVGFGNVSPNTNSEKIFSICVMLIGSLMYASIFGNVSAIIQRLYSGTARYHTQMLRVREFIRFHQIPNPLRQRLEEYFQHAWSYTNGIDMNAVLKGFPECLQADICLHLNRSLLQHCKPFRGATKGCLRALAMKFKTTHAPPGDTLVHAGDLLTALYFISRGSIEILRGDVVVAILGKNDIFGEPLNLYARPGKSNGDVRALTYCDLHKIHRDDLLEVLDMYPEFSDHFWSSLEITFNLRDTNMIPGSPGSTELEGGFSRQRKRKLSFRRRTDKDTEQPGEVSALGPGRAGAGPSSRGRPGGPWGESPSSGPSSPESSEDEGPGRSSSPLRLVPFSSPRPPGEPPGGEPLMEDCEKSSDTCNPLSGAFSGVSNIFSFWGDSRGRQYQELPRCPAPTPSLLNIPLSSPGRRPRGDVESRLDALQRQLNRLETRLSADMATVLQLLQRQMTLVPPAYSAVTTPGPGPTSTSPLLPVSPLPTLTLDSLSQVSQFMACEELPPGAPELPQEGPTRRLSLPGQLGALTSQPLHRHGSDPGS", "assay": "Automated patch clamp (Nanion Patchliner) of hERG current in CHO-hERG cells with K+ solutions", "format": "cell-based", "description": "(§1) A cell passage was performed twice a week and kept under 20 passages for optimal cell quality. […] Thereafter, the cells were resuspended in 1.7 mL external K^+ solution.\n(§2) After sample preparation, experiments on CHO cells were performed at 22°C on the Nanion® Patchliner system (Nanion Technologies, Munich, Germany) with a EPC-10 Quadro Amplifier (HEKA, Reutlingen, Germany) controlled by Patchmaster 2.90.5. Recordings were performed using membrane capacitance and series resistance compensation (70%). The chip (NPC-16 medium resistance, Nanion Technologies) was filled with either the K^+ or Cs^+ internal and external solution with a resistance between 2 and 4 MOhm. Thereafter, the cells were added to the chip. After the capture of a cell, the seal enhancer solution was added, obtaining a Rseal of at least 200 MOhm. Next, the chip was flushed with an external solution. During the experiment, four cells were measured simultaneously in separate chambers of the chip.\n(§3) For all experiments, the drugs were incubated for 60 s before measuring and an activation pulse of +20 mV and −80 mV both for 500 m was given to open the channel and achieve the steady-state ion channel–drug interaction.\nFor Cs^+-based experiments, the cells were depolarized from a holding potential of −80 mV in 10-mV increments between −70 mV and +40 mV for 3 s. Thereafter, the cell was clamped back to −80 mV for 2 s, followed by a hyperpolarization step to −100 mV for 50 ms before returning to −80 mV. In K^+-based experiments, the cells were clamped at a holding potential of −80 mV before a hyperpolarizing step to −120 mV for 10 ms and returned to −80 mV for 50 ms before cells were depolarized from −60 mV to 60 mV in 10-mV increments for 1 s. Thereafter, the cells were clamped back to −50 mV for 500 ms and finally returned to −80 mV. The interval between sweeps was 10 s for both protocols.\nFor the stock solutions, the drugs were dissolved in ddH2O and for the working solution diluted in either the K^+ or Cs^+ external solution. The different concentrations per compound were sequentially tested on the same cell.\nFor all measured currents, the current densities (pA/pF) were determined by normalizing for the membrane capacitance. The current densities were converted to conductance densities (pS/pF) using reversal potentials calculated using the Nernst equation for the solution and temperature used.\nDose–response curves were made with the tail current values at 40 mV, which were the largest current densities.\nAll averages are expressed as mean ± SEM for the (maximal) conductance values and IC50 values. To determine the amount of block, a two-way ANOVA with Dunnett’s test was performed with the maximal conductance values. […]"}, "hERG channel [2]": {"biological_target": "T1, hERG channel", "assay": "Automated patch clamp (Nanion Patchliner) of hERG current in CHO-hERG cells with equimolar Cs+ solutions", "format": "cell-based", "description": "as §1, §2, §3\nFor Cs^+-based experiments, the cells were depolarized from a holding potential of −80 mV in 10-mV increments between −70 mV and +40 mV for 3 s. Thereafter, the cell was clamped back to −80 mV for 2 s, followed by a hyperpolarization step to −100 mV for 50 ms before returning to −80 mV. In K^+-based experiments, the cells were clamped at a holding potential of −80 mV before a hyperpolarizing step to −120 mV for 10 ms and returned to −80 mV for 50 ms before cells were depolarized from −60 mV to 60 mV in 10-mV increments for 1 s. […]\nFor all measured currents, the current densities (pA/pF) were determined by normalizing for the membrane capacitance. The current densities were converted to conductance densities (pS/pF) using reversal potentials calculated using the Nernst equation for the solution and temperature used. […]\nAll averages are expressed as mean ± SEM for the (maximal) conductance values and IC50 values. […]"}}}
{"smiles": "CNCCCN1c2ccccc2CCc2ccccc21", "note": "[Desipramine]", "values": [{"measurement": "effect on K+ step conductance", "setting": "hERG channel [1]; K+ solutions, 1 µM", "value": "almost completely inhibited"}, {"measurement": "effect on K+ tail conductance", "setting": "hERG channel [1]; K+ solutions, 100 and 1,000 µM", "value": "completely blocked"}, {"measurement": "Hill coef.", "setting": "hERG channel [1]; K+ solutions, tail current at +40 mV", "value": "−1.4"}, {"measurement": "strength of hERG current inhibition", "setting": "hERG channel [1]; comparison of the drugs, Figure 1 (K+ and Cs+ solutions)", "value": "modest inhibition"}, {"measurement": "effect on Cs+ step conductance", "setting": "hERG channel [2]; 100 µM (highest)", "value": "slightly decreased"}, {"measurement": "effect on Cs+ tail conductance", "setting": "hERG channel [2]; 100 µM (highest)", "value": "strong decrease but not a complete block"}, {"measurement": "Hill coef.", "setting": "hERG channel [2]; tail current at +40 mV", "value": "−1.4"}]}
